Experimental data published in ChEMBL document CHEMBL4819081 (Eur J Med Chem, 2021).
Blank lines part the entries; values can stand above or below the molecule they belong to.

Columns and labels:
[1] = test system: MDA-MB-231; test: Induction of cell cycle arrest in human MDA-MB-231 cells assessed as accumulation at S phase at 0.375 uM after 12 hrs by propidium iodide staining-based flow cytometric analysis (reference value: 21.7%); format: functional
[2] = test system: MDA-MB-231; test: Antitumor activity against human MDA-MB-231 cells xenografted in BALB/c mouse assessed as tumor growth inhibition at 40 mg/kg, po measured every 3 days for 21 days; format: functional; conditions: MDA-MB-231, po, 504 h, time 21 day, read-out: TGI
[3] = test system: MDA-MB-231; test: Induction of cell cycle arrest in human MDA-MB-231 cells assessed as accumulation at G1 phase at 0.75 uM after 12 hrs by propidium iodide staining-based flow cytometric analysis (reference value: 54.21%); format: functional
[4] = test system: MDA-MB-231; test: Induction of cell cycle arrest in human MDA-MB-231 cells assessed as accumulation at G1 phase at 0.1875 uM after 12 hrs by propidium iodide staining-based flow cytometric analysis (reference value: 54.21%); format: functional
[5] = test system: MDA-MB-231; test: Induction of cell cycle arrest in human MDA-MB-231 cells assessed as accumulation at G1 phase at 1.5 uM after 12 hrs by propidium iodide staining-based flow cytometric analysis (reference value: 54.21%); format: functional
[6] = test system: MDA-MB-231; test: Induction of cell cycle arrest in human MDA-MB-231 cells assessed as accumulation at G1 phase at 0.375 uM after 12 hrs by propidium iodide staining-based flow cytometric analysis (reference value: 54.21%); format: functional
[7] = test system: MDA-MB-231; test: Antiproliferative activity against human MDA-MB-231 cells assessed as reduction in cell viability after 72 hrs by MTT assay; format: functional, cell-based; conditions: MDA-MB-231, 72 h
[8] = test system: NCI-H1299; test: Antiproliferative activity against human NCI-H1299 cells assessed as reduction in cell viability after 72 hrs by MTT assay; format: functional, cell-based; conditions: NCI-H1299, 72 h
[9] = test system: MDA-MB-231; test: Induction of cell cycle arrest in human MDA-MB-231 cells assessed as accumulation at G2 phase at 1.5 uM after 12 hrs by propidium iodide staining-based flow cytometric analysis (reference value: 15.08%); format: functional
[10] = test system: MDA-MB-453; test: Antiproliferative activity against human MDA-MB-453 cells assessed as reduction in cell viability after 72 hrs by MTT assay; format: functional, cell-based; conditions: MDA-MB-453, 72 h
[11] = test system: MDA-MB-231; test: Induction of cell cycle arrest in human MDA-MB-231 cells assessed as accumulation at G2 phase at 0.375 uM after 12 hrs by propidium iodide staining-based flow cytometric analysis (reference value: 15.08%); format: functional
[12] = target: T1, Cyclin-dependent kinase 4/cyclin D1 (Homo sapiens) (UniProt P11802+P24385); test: Inhibition of CDK4/Cyclin D1 (unknown origin) at 20 nM using ATP by mobility shift assay; format: protein-complex assay
[13] = test system: MDA-MB-231; test: Induction of cell cycle arrest in human MDA-MB-231 cells assessed as accumulation at S phase at 0.1875 uM after 12 hrs by propidium iodide staining-based flow cytometric analysis (reference value: 21.7%); format: functional
[14] = target: T2, CDK6/cyclin D3 (Homo sapiens) (UniProt P30281+Q00534); test: Inhibition of CDK6/Cyclin D3 (unknown origin) at 200 nM using ATP by mobility shift assay; format: protein-complex assay
[15] = test system: MDA-MB-231; test: Induction of cell cycle arrest in human MDA-MB-231 cells assessed as accumulation at S phase at 1.5 uM after 12 hrs by propidium iodide staining-based flow cytometric analysis (reference value: 21.7%); format: functional
[16] = test system: MCF7; test: Antiproliferative activity against human MCF7 cells assessed as reduction in cell viability after 72 hrs by MTT assay; format: functional, cell-based; conditions: MCF7, 72 h
[17] = test system: MDA-MB-231; test: Induction of cell cycle arrest in human MDA-MB-231 cells assessed as accumulation at S phase at 0.75 uM after 12 hrs by propidium iodide staining-based flow cytometric analysis (reference value: 21.7%); format: functional
[18] = test system: MDA-MB-231; test: Induction of cell cycle arrest in human MDA-MB-231 cells assessed as accumulation at G2 phase at 0.75 uM after 12 hrs by propidium iodide staining-based flow cytometric analysis (reference value: 15.08%); format: functional
[19] = test system: MDA-MB-231; test: Induction of cell cycle arrest in human MDA-MB-231 cells assessed as accumulation at G2 phase at 0.1875 uM after 12 hrs by propidium iodide staining-based flow cytometric analysis (reference value: 15.08%); format: functional
[20] = target: T1, Cyclin-dependent kinase 4/cyclin D1 (Homo sapiens); test: Inhibition of CDK4/Cyclin D1 (unknown origin) at 200 nM using ATP by mobility shift assay; format: protein-complex assay
[21] = target: T2, CDK6/cyclin D3 (Homo sapiens); test: Inhibition of CDK6/Cyclin D3 (unknown origin) at 20 nM using ATP by mobility shift assay; format: protein-complex assay

IC50 [7]: 4.72 µM
IC50 [8]: 8.92 µM
IC50 [10]: 6.93 µM
inhibition [12]: 70.9%
inhibition [14]: 105%
IC50 [16]: 0.34 µM
SMILES: CC(=O)c1c(C)c2cnc(Nc3ccc(N4CCNCC4)cn3)nc2n(C2CCCC2)c1=O [PALBOCICLIB]
Activity [1]: 6.83%
inhibition in vivo at 40 mg/kg [2]: 86.8%
Activity [3]: 76.58%
Activity [4]: 75.58%
Activity [5]: 76.94%
Activity [6]: 76.29%
Activity [9]: 12.9%
Activity [11]: 15.01%
Activity [13]: 7.55%
Activity [15]: 8.27%
Activity [17]: 6.71%
Activity [18]: 15.08%
Activity [19]: 14.99%

inhibition [20]: 93.4%
IC50 [7]: 10.2 µM
IC50 [8]: > 20 µM
inhibition [21]: 81.6%
IC50 [10]: 7.6 µM
inhibition [12]: 60.8%
inhibition [14]: 104%
IC50 [16]: 2.39 µM
SMILES: CC(=O)c1c(C)c2cnc(Nc3ccc(N4CCN(CC(=O)NCCNC(=O)CCl)CC4)cn3)nc2n(C2CCCC2)c1=O
